We go through four compounds from patent US4241184A, “Secondary alcohol dehydrogenase enzyme and use thereof” (priority 1979, dated 1980).

Assay [1] deals with P(40) particulate fraction of Methylosinus sp. (CRL-15, NRRL B-11,202). The experiment in a line: Stoichiometry of propylene epoxidation and methane hydroxylation by P(40) fraction. It counts as biochemical. Conditions: 5.0 μmoles substrate. As to the method: The particulate P(40) fraction of Methylosinus sp. (CRL-15, NRRL B-11,202) was used to determine the stoichiometry of hydroxylation and epoxidation reactions. The stoichiometry of methane or propylene-dependant NADH oxidation, oxygen consumption and product formation was approximately 1:1:1 Table XIV. This is consistent with methane or propylene oxygenation being catalyzed by a mono-oxygenase.
^a Under identical condition of reaction, the estimation of NADH
oxidized was carried out spectrophotometrically, the estimation of oxygen
consumed was measured polarographically, and estimation of product formed
was carried out by gas chromatography.

Assay [2] relates to Methylosinus trichosporium OB3b (NRRL B-11,196). The experiment in a line: Stoichiometry of the epoxidation of propylene by a cell-suspension. Format: cell-based. The following applies: 3 min., 3.1 mg. protein, 3.6 μmoles propylene. As to the method:
As a comparison the stoichiometry of the epoxidation of propylene by a cell-suspension of Methylosinus trichosporium OB3b (NRRL B-11,196) was determined as follows. The reaction mixture (3.0 ml.) contained 0.05 M sodium phosphate buffer, pH 7.0 and 3.6 μmoles of propylene. The reaction was initiated by the injection of 0.1 ml. of cell-suspension (3.1 mg. protein). A correction was made for the endogenous consumption of oxygen. The amount of oxygen consumed during the reaction (3 min.) was determined polarographically with a Clark oxygen electrode. The propylene consumed and the propylene oxide formed was estimated by gas chromatography. The propylene consumed was 0.29 μmoles, the oxygen consumed was 0.30 μmoles and the propylene oxide formed was 0.28 μmoles.

Assay [3] has as its system P(40) particulate fraction of Methylosinus sp. (CRL-15, NRRL B-11,202). The experiment in a line: Oxidation of n-alkenes and n-alkanes by P(40) particulate fraction. Format: biochemical. The following applies: for Rate of Product Formation: substrate oxidized to its epoxide or alcohol, 30° C.
Assay [4] deals with cell-free particulate fractions derived from the methylotrophic microorganisms. Kind of assay: Conversion of C3-C6 n-alkanes to sec. alcohols by cell-free particulate fractions: inhibitors and electron donors. It counts as biochemical. The source says: The conditions for preparing the cell suspensions or the cell-free particulate fractions from methane-grown methylotroph microorganisms is the same as described above. […] Tables XXV and XXVI show the conversion of C3 -C6 n-alkanes to the corresponding secondary alcohols using cell suspensions and cell-free particulate fractions, respectively, of methane-grown methylotroph microorganisms.

The nature of assay [5]: Propylene- and methane-oxidizing activities in cell fractions P(40), P(80), S(80) of methylotrophs. Format: biochemical. The following applies: in place of NADH. As to the method: The oxidation of methane and propylene by particulate [(P)40 and(P)80] fractions and soluble [S(80)] fraction was measured at 30° C. by estimating the production of methanol and propylene oxide, respectively.
Reaction mixtures were contained in 10 ml vials at 4° C. Vials were sealed with rubber caps. The gaseous phase in the vials was removed using vacuum and then was replaced with a gas mixture of methane or propylene and oxygen at a 1:1, v/v ratio. Oxidation of other gaseous n-alkanes and n-alkenes was examined as described above. For liquid substrates, 10 μl of substrate was used directly. Vials were then incubated at 30° C. on a rotary shaker at 200 RPM.
The column temperature was maintained isothermally at 120° C. The carrier gas flow rate was 30 ml/min. of helium.

Assay [6] can be described thus: Oxidation of methane and lower alkenes by washed cell suspensions of methane-grown methylotrophic strains. Conditions: methane-grown methylotrophic microorganisms. It counts as cell-based. As to the method: The isolates had been maintained on agar plates under an atmosphere of methane and air having a 1:1 v/v gas ratio which had been transferred every two weeks. The gaseous phase of the inoculated flasks was then replaced with a gas mixture comprised of methane and air having a ratio of 1:1 on a v/v basis.
The cells were harvested by centrifugation at 10,000×g. at 4° C. for 30 minutes. The cell pellet was washed twice with a 0.15 M phosphate buffer at a pH of 7.0 (containing 0.002 M MgCl2). The washed cells were then suspended in a 0.15 M phosphate buffer at pH 7.0.
A 0.5 ml sample of each washed cell suspension (2 mg cells) was put into 10 ml vials at 4° C. which were sealed with a rubber cap. The gaseous phase of the vials was removed with vacuum and then was replaced with a gas mixture of the oxidative substrate (e.g., methane) and oxygen at a 1:1 v/v ratio. The vials were then incubated at 30° C. on a rotary shaker at 300 rpm. Samples of product (3 μl) were withdrawn periodically with a microsyringe and the products were analyzed by gas chromatography (ionization flame detector column).
The newly discovered and isolated microorganism strains of the present invention were each grown aerobically in the presence of methane in the manner described above. […]

Regarding `C=CC` [Propylene], in assay [1], the “NADH Oxidized” value came out at 5.0 µmol, the “O2 Consumed” value is 4.8 µmol and the “Product formed” value is 4.5 µmol. In assay [2], this compound registered an oxygen consumed of 0.30 µmol, a propylene consumed of 0.29 µmol and a propylene oxide formed of 0.28 µmol. The “Propylene Oxide Produced” value in assay [3] (substrate competition, gas phase as labelled) is 4.3 μmoles/hr/mg. protein. In assay [3], the “Rate of Product Formation” value is recorded as 4.1 μ moles/hr/mg of protein. The “inhibition of the conversion of the n-alkanes to the sec. alcohols” value in assay [4] was “inhibit”.

Take `NC(=O)C1=CN([C@@H]2O[C@H](COP(=O)(O)OP(=O)(O)OC[C@H]3O[C@@H](n4cnc5c(N)ncnc54)[C@H](OP(=O)(O)O)[C@@H]3O)[C@@H](O)[C@H]2O)C=CC1` [NADPH, reduced nicotinamide adenine dinucleotide phosphate]: the “electron carrier for epoxidation of propylene and hydroxylation of methane” value in assay [5] is “could also be utilized”. Moreover, in assay [4], the “electron donor in place of NADH for hydroxylation of n-alkanes” value was “could also be utilized”.

As for `C=CCCCC` [hexene-1], the “epoxide product from the substrate” value in assay [6] is listed as “did not produce any detectable epoxide product”.

`C=CCCC` [1-Pentene]: the “epoxide product from the substrate” value in assay [6] is “did not produce any detectable epoxide product”. Further, in assay [3], the “Rate of Product Formation” value is on record as 0 μ moles/hr/mg of protein.
